Data reported in ChEMBL document CHEMBL1201862, “PubChem BioAssay data set” (2004).
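Assay format: 96-well plates, 48-hour exposure. Abbreviation: GI50, concentration required for 50% inhibition of growth.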 The source made the active and inactive calls. Rule as the data show it: active = GI50 up to about 1.1 µM and inactive = higher.

Legend:
Test in all cases: NCI anticancer screen, dose series, 48 h
T47D = test system: T47D
NCI-H522 = test system: NCI-H522
OVCAR-4 = test system: OVCAR-4
COLO 205 = test system: COLO 205
BT-549 = test system: BT-549
CAKI-1 = test system: CAKI-1
SF-268 = test system: SF-268
SF-539 = test system: SF-539
MDA-MB-435 = test system: MDA-MB-435
HCT-15 = test system: HCT-15
SK-MEL-2 = test system: SK-MEL-2
UACC-62 = test system: UACC-62
UACC-257 = test system: UACC-257
U-251 = test system: U-251
PC-3 = test system: PC-3
HT-29 = test system: HT-29
RXF 393 = test system: RXF 393
Hs-578T = test system: Hs-578T
HL-60 = test system: HL-60
A498 = test system: A498

SMILES | GI50 (T47D) | GI50 (NCI-H522) | GI50 (OVCAR-4) | GI50 (COLO 205) | GI50 (BT-549) | GI50 (CAKI-1) | GI50 (SF-268) | GI50 (SF-539) | GI50 (MDA-MB-435) | GI50 (HCT-15) [µM] | GI50 (SK-MEL-2) | GI50 (UACC-62) | GI50 (UACC-257) | GI50 (U-251) | GI50 (PC-3) | GI50 (HT-29) | GI50 (RXF 393) | GI50 (Hs-578T) | GI50 (HL-60) | GI50 (A498)
Cn1c2ccccc2c2c3c(c4c5ccccc5n(C)c4c21)C(=O)NC3=O | 46.1 µM (inactive) | 21.2 µM (inactive) | 5.3 µM (inactive) | > 72.6 µM (inactive) | > 42.4 µM (inactive) | 0.0256 µM (active) | 97.5 µM (inactive) | 10.2 µM (inactive) | > 42.7 µM (inactive) | > 100 | > 26.5 µM (inactive) | > 32.9 µM (inactive) | > 65.2 µM (inactive) | 16.8 µM (inactive) | > 31.4 µM (inactive) | > 32.5 µM (inactive) | 0.0589 µM (active) | 24.8 µM (inactive) |  | 
CCOC(=O)c1cc2c(=Cc3ccc(N(C)C)cc3)c3ccccc3n2[n+]1C | 3.12 µM (inactive) |  | 3.1 µM (inactive) | 0.309 µM (active) | 0.577 µM (active) | 1.64 µM (inactive) | 3.21 µM (inactive) | 0.577 µM (active) |  | 10.4 | 1.48 µM (inactive) | 1.33 µM (inactive) | 1.57 µM (inactive) | 0.304 µM (active) | 0.574 µM (active) | < 0.01 µM (active) | 1.63 µM (inactive) |  | 0.372 µM (active) | 10.4 µM (inactive)
N#Cc1c(C#N)c(-c2ccco2)n(-c2ccccc2)c1N | 11.7 µM (inactive) | > 100 µM (inactive) | > 100 µM (inactive) | > 100 µM (inactive) | 40.1 µM (inactive) | > 100 µM (inactive) | 51.9 µM (inactive) | 38.5 µM (inactive) | > 100 µM (inactive) | > 100 | > 100 µM (inactive) | > 100 µM (inactive) | > 100 µM (inactive) | 35.5 µM (inactive) | > 100 µM (inactive) | > 100 µM (inactive) | > 100 µM (inactive) |  | > 100 µM (inactive) | > 100 µM (inactive)
OC(CC(O)(C(F)(F)F)C(F)(F)F)C(O)c1ccco1 (stereo unspecified) | > 10 µM (inactive) | > 10 µM (inactive) | > 10 µM (inactive) | > 10 µM (inactive) |  | > 10 µM (inactive) | > 10 µM (inactive) | > 10 µM (inactive) | > 10 µM (inactive) | > 10 | > 10 µM (inactive) | > 10 µM (inactive) | > 10 µM (inactive) | > 10 µM (inactive) | > 10 µM (inactive) | > 10 µM (inactive) | > 10 µM (inactive) | > 10 µM (inactive) | > 10 µM (inactive) | 0.22 µM (active)
c1ccc(-c2cn3nc(N4CCOCC4)sc3n2)cc1 | 56.8 µM (inactive) | > 100 µM (inactive) | 34 µM (inactive) | > 100 µM (inactive) | > 100 µM (inactive) | 16.6 µM (inactive) | > 100 µM (inactive) |  | > 100 µM (inactive) | > 100 | > 100 µM (inactive) | > 100 µM (inactive) | > 100 µM (inactive) | 48.6 µM (inactive) | > 100 µM (inactive) | > 100 µM (inactive) | 83.6 µM (inactive) | 60 µM (inactive) | > 100 µM (inactive) | 
CC(=O)OCc1cc2ccccc2nc1C(Br)(Br)Br | 27.8 µM (inactive) | 16 µM (inactive) | 11.8 µM (inactive) | 19.6 µM (inactive) | 10.4 µM (inactive) | 15.7 µM (inactive) | 17.8 µM (inactive) | 21.1 µM (inactive) | 13.3 µM (inactive) | 16.9 | 18.5 µM (inactive) | 15.5 µM (inactive) | 12.4 µM (inactive) | 14 µM (inactive) |  | 21.6 µM (inactive) | 15.4 µM (inactive) | 27 µM (inactive) | 14.9 µM (inactive) | 21.2 µM (inactive)
Cc1cc(N(CCCCl)CCCCl)ccc1/C=N/c1cccc(Cl)c1 | 0.45 µM (active) | 17.5 µM (inactive) | 12.4 µM (inactive) | 11.5 µM (inactive) |  |  | 12.2 µM (inactive) |  | 17.7 µM (inactive) | 13.6 | 16.4 µM (inactive) | 0.74 µM (active) | 0.428 µM (active) | 15.7 µM (inactive) | 12 µM (inactive) | 14.6 µM (inactive) | 11.5 µM (inactive) | 14.3 µM (inactive) | 13 µM (inactive) | 
O=C(CC(C(=O)c1cccs1)c1cccs1)c1ccccc1Cl (stereo unspecified) | 52 µM (inactive) |  | > 100 µM (inactive) | 54 µM (inactive) |  | > 100 µM (inactive) | > 100 µM (inactive) | > 100 µM (inactive) | > 100 µM (inactive) | 94.8 | > 100 µM (inactive) | > 100 µM (inactive) | 74.3 µM (inactive) | > 100 µM (inactive) | 72.9 µM (inactive) | 76.6 µM (inactive) |  | 75.3 µM (inactive) | 76.4 µM (inactive) | > 100 µM (inactive)
CC(C)(C)C1=C(Br)C(O)(C(C)(C)C)OP1(=O)c1ccccc1 (stereo unspecified) | > 100 µM (inactive) | > 100 µM (inactive) | > 100 µM (inactive) | > 100 µM (inactive) |  | > 100 µM (inactive) | > 100 µM (inactive) | > 100 µM (inactive) | > 100 µM (inactive) | > 100 | > 100 µM (inactive) | > 100 µM (inactive) | > 100 µM (inactive) | > 100 µM (inactive) | > 100 µM (inactive) | > 100 µM (inactive) | > 100 µM (inactive) | > 100 µM (inactive) | > 100 µM (inactive) | > 100 µM (inactive)
CCN(CCCl)c1ccc(NC(=O)c2cc(C(=O)NCCN(C)C)cc(C(=O)Nc3ccc(N(CC)CCCl)cc3)c2)cc1 | 18.7 µM (inactive) | 2.3 µM (inactive) | 9.38 µM (inactive) |  |  | 27.5 µM (inactive) | 0.891 µM (active) | 1.62 µM (inactive) | 8.32 µM (inactive) | 51.1 | 15.7 µM (inactive) | 4.98 µM (inactive) | 18.1 µM (inactive) | 2.18 µM (inactive) | 2.22 µM (inactive) | 1.57 µM (inactive) | 5.41 µM (inactive) | 0.513 µM (active) | 0.0743 µM (active) | 18.5 µM (inactive)
[N-]=[N+]=NC1C(O)C(CO)OC1n1ccc(N)nc1=O (stereo unspecified) |  | 37.6 µM (inactive) | > 625 µM (inactive) | 160 µM (inactive) | 161 µM (inactive) | 185 µM (inactive) | 191 µM (inactive) | 165 µM (inactive) | 44.3 µM (inactive) | 56.2 | 76.7 µM (inactive) | 147 µM (inactive) | 369 µM (inactive) | 195 µM (inactive) | 182 µM (inactive) | 204 µM (inactive) | > 206 µM (inactive) | 532 µM (inactive) | 3.83 µM (inactive) | 91.8 µM (inactive)
COc1cc(OC)c(/C=C\c2ccnc3ccccc23)c(OC)c1 | 3.12 µM (inactive) | 3.76 µM (inactive) | 0.349 µM (active) | 1.98 µM (inactive) |  | 6.93 µM (inactive) | 5.97 µM (inactive) | 3.73 µM (inactive) | 0.404 µM (active) | 0.794 | 3.88 µM (inactive) | 2.49 µM (inactive) | 3.75 µM (inactive) | 3.81 µM (inactive) | 5.51 µM (inactive) | 2.67 µM (inactive) | 2.39 µM (inactive) | 2.64 µM (inactive) | 0.347 µM (active) | 2.88 µM (inactive)
Nc1nc(=O)c(/N=N/c2ccccc2)c(C(=O)O)[nH]1 |  | 52.7 µM (inactive) | > 100 µM (inactive) | > 100 µM (inactive) | > 100 µM (inactive) | > 100 µM (inactive) | 72.3 µM (inactive) | > 100 µM (inactive) | > 100 µM (inactive) | 75.2 | > 100 µM (inactive) | > 100 µM (inactive) | 62.8 µM (inactive) | 56.9 µM (inactive) | > 100 µM (inactive) | 45.5 µM (inactive) | > 100 µM (inactive) | > 100 µM (inactive) | 37.9 µM (inactive) | > 100 µM (inactive)
CC(=O)OCC(OC(C)=O)C(OC(C)=O)C(OC(C)=O)C(=O)CNn1c(-c2ccc(C)cc2)nc2ccccc2c1=O (stereo unspecified) |  | 57.9 µM (inactive) | > 100 µM (inactive) | > 100 µM (inactive) |  | 90.2 µM (inactive) | > 100 µM (inactive) | > 100 µM (inactive) |  | > 100 | > 100 µM (inactive) | 60.5 µM (inactive) | > 100 µM (inactive) | > 100 µM (inactive) |  | > 100 µM (inactive) | > 100 µM (inactive) |  | 50 µM (inactive) | > 100 µM (inactive)
Cn1c(N/N=C/c2ccccc2)nc(-c2ccc3c(c2)OCO3)c(C#N)c1=O | > 100 µM (inactive) | > 100 µM (inactive) | 61.7 µM (inactive) | 58.3 µM (inactive) |  | 99.3 µM (inactive) | > 100 µM (inactive) | > 100 µM (inactive) | 73.8 µM (inactive) | 36.5 | > 100 µM (inactive) | 40.3 µM (inactive) | 77.1 µM (inactive) | > 100 µM (inactive) | 56.8 µM (inactive) | > 100 µM (inactive) | 81.8 µM (inactive) | 48.5 µM (inactive) | 39.9 µM (inactive) | 95.9 µM (inactive)
COc1ccccc1NC(=O)C1=C(C)NC(C)=C(C(=O)Nc2ccccc2OC)C1c1ccc([N+](=O)[O-])cc1 |  | 24.4 µM (inactive) | 56.2 µM (inactive) | 56.2 µM (inactive) |  | 21.7 µM (inactive) | > 100 µM (inactive) | > 100 µM (inactive) |  | > 100 | 74.5 µM (inactive) | 59.6 µM (inactive) | > 100 µM (inactive) | 86.1 µM (inactive) |  | 80.5 µM (inactive) | 60.4 µM (inactive) |  | 39.2 µM (inactive) | > 100 µM (inactive)
